The values below are quoted from earlier work in patent EP0086705A1, “Aqueous solution of ursodeoxycholic acid for therapeutic uses, process for its preparation and its utilization for the treatment of cholelithiasis” (S.A. PANMEDICA Société dite:, priority 1982, dated 1983).

For the series the following is noted: 37"C.

As to `C[C@H](CCC(=O)O)[C@H]1CC[C@H]2[C@@H]3[C@H](O)C[C@@H]4C[C@H](O)CC[C@]4(C)[C@H]3CC[C@]12C` [acide chénodésoxycholique], the “pH de précipitation de la solution” value is 7,0.
